Columns and labels:
[1] = system: pepsin; test: Pepsin activity in gastric juice of pylorus-ligated rats (Mett tube method); type: in vivo, Wister rats; conditions: for activity of pepsin: n = 8, X ± S; for Inhibition ratio for pepsin activity: versus control group
Procedure: (§1) Wister rats (200–250 g), half were male and half were female, were starved for 48 hours and the pylori were ligated. Immediately after ligation, a suspension or solution of a salt in distilled water was administered orally into the stomachs in an amount of 2.0 ml/Kg; while 0.5% MC of the same volume was given to the control group. After administration of the test salt for 5 hours, the rats were killed. Their cardias were ligated and their stomachs were taken out. The gastric juice was collected into centrifuge tube and centrifuged at 2500 rpm for 10 min, the volume after residue removed was recorded as the total volume of the gastric juice. The acidity of gastric juice and pepsin activity were measured with the supernatant of the gastric juice after centrifuging.
(b) Enzyme assay for pepsin (Mett tube method): 0.5 ml of gastric juice was added exactly into a clean 50 ml flask with a plug, the flask was shaken to get a homogeneous solution, then, 15.0 ml of 0.05 N HCL solution was added in, in the meantime, two 3.0–4.0 cm long Mett tubes were put inside. The flask was plugged, shaken to get a homogeneous solution, left to stand at 37° C. for 24 hours. The length (mm) of the transparent part at the two ends of each Mett tube was measured precisely to get four values. The mean value was based on the four values, and the pepsin activity was calculated. Inhibiting ratio of pepsin activity %=[(pepsin activity of the control group−pepsin activity of the treatment group)/pepsin activity of the control group]×100% Test Result: […]

[2] = system: gastric juice secretion of Pylorus-ligated rats; test: Gastric juice secretion and acidity of pylorus-ligated rats after oral administration; type: in vivo, Wister rats; set-up: T.AC / MEL (10^3) / MEAH: unit not given here; conditions: for Total volume of gastric juice: 5 hours after pylorus ligation; for Total volume of gastric juice / MEL (10^3) / MEAH: n = 8, X ± S; for Inhibition ratio for total acid amount / Inhibition to gastric juice secretion: versus control group; for MEL (10^3): acid concentration of gastric juice; for MEAH: total acid amount in gastric juice; for T.AC: volume of 0.01 N NaOH to titrate to pH 7, n = 8, X ± S
Procedure: as §1
(a) Measurement of the acidity of gastric juice: with 0.5 ml of gastric juice taken exactly, about 20 ml of distilled water added in, it was measured with pH meter. The mixture was titrated to pH 7 with 0.01 N NaOH solution, and the volume of 0.01 N NaOH solution used was recorded. Then, the volume (T.AC) was calculated corresponding to titrating to pH 7 with 0.01 N NaOH solution. Acid concentration of gastric juice (MEL)=(T.AC/2)×1000 Total acid amount in gastric juice (MEAH)=MEL×(total volume of gastric juice/1000) Inhibiting ratio on the secretion of gastric juice %=[(volume of the gastric juice of the control group−volume of the gastric juice of the treatment group)/volume of the gastric juice of the control group]×100% Inhibiting ratio on the total acid amount in gastric juice %=[(MEAH of the control group−MEAH of the treatment group)/MEAH of the control group]×100%

[3] = system: KunMing mice; test: Acute toxicity of NIPWZ, oral administration to mice (LD50, Bliss's method); type: in vivo; conditions: for Death distribution 2 h / Death distribution 4 h / Death distribution 24 h / Death distribution 72 h / Number of death (F:M) / Ratio of death: 10 mice
Procedure: 50 second grade KunMing mice were provided, each weighing 20.0±1.2 g, randomly divided into 5 groups, 10 for each group, 5 male and 5 female. Medicine was administered intra-gastrically by 40 ml/Kg once, the solvent was 0.5% MC. The doses for the 5 groups were: 4480 mg/Kg, 3000 mg/Kg, 2010 mg/Kg, 1350 mg/Kg, 910 mg/Kg, the ratio of any two abutted doses was 1:0.67. […] Wherein the LD50 was determined by Bliss's method.

Salts of Sulfodehydroabietic Acid with Zinc [NIPWZ]
activity of pepsin ([1]; oral 50 mg/Kg): 0.88 ± 0.33 U
Inhibition ratio for pepsin activity ([1]; oral 50 mg/Kg): 40.5%
activity of pepsin ([1]; oral 100 mg/Kg): 0.66 ± 0.34 U
Inhibition ratio for pepsin activity ([1]; oral 100 mg/Kg): 55.4%
Total volume of gastric juice ([2]; oral 50 mg/Kg): 7.2 ± 2.9 mL
Inhibition ratio for total acid amount ([2]; oral 50 mg/Kg): 52.9%
Inhibition to gastric juice secretion ([2]; oral 50 mg/Kg): 20.9%
MEL (10^3) ([2]; oral 50 mg/Kg): 1.92 ± 1.47
MEAH ([2]; oral 50 mg/Kg): 13.8 ± 4.2
T.AC ([2]; oral 50 mg/Kg): 3.83 ± 2.93
Total volume of gastric juice ([2]; oral 100 mg/Kg): 7.0 ± 3.1 mL
Inhibition ratio for total acid amount ([2]; oral 100 mg/Kg): 47.1%
Inhibition to gastric juice secretion ([2]; oral 100 mg/Kg): 23.1%
MEL (10^3) ([2]; oral 100 mg/Kg): 2.21 ± 1.32
MEAH ([2]; oral 100 mg/Kg): 15.5 ± 4.1
T.AC ([2]; oral 100 mg/Kg): 4.41 ± 2.64
Death distribution 2 h ([3]; mice, oral 910 mg/Kg): 0
Death distribution 4 h ([3]; mice, oral 910 mg/Kg): 0
Death distribution 24 h ([3]; mice, oral 910 mg/Kg): 0
Death distribution 72 h ([3]; mice, oral 910 mg/Kg): 0
Number of death (F:M) ([3]; mice, oral 910 mg/Kg): 0 (0:0)
Ratio of death ([3]; mice, oral 910 mg/Kg): 0%
Death distribution 2 h ([3]; mice, oral 1350 mg/Kg): 0
Death distribution 4 h ([3]; mice, oral 1350 mg/Kg): 0
Death distribution 24 h ([3]; mice, oral 1350 mg/Kg): 3
Death distribution 72 h ([3]; mice, oral 1350 mg/Kg): 1
Number of death (F:M) ([3]; mice, oral 1350 mg/Kg): 4 (1:3)
Ratio of death ([3]; mice, oral 1350 mg/Kg): 40%
Death distribution 2 h ([3]; mice, oral 2010 mg/Kg): 0
Death distribution 4 h ([3]; mice, oral 2010 mg/Kg): 0
Death distribution 24 h ([3]; mice, oral 2010 mg/Kg): 7
Death distribution 72 h ([3]; mice, oral 2010 mg/Kg): 0
Number of death (F:M) ([3]; mice, oral 2010 mg/Kg): 7 (5:2)
Ratio of death ([3]; mice, oral 2010 mg/Kg): 70%
Death distribution 2 h ([3]; mice, oral 3000 mg/Kg): 0
Death distribution 4 h ([3]; mice, oral 3000 mg/Kg): 7
Death distribution 24 h ([3]; mice, oral 3000 mg/Kg): 1
Death distribution 72 h ([3]; mice, oral 3000 mg/Kg): 0
Number of death (F:M) ([3]; mice, oral 3000 mg/Kg): 8 (5:3)
Ratio of death ([3]; mice, oral 3000 mg/Kg): 80%
Death distribution 2 h ([3]; mice, oral 4480 mg/Kg): 7
Death distribution 4 h ([3]; mice, oral 4480 mg/Kg): 3
Death distribution 24 h ([3]; mice, oral 4480 mg/Kg): 0
Death distribution 72 h ([3]; mice, oral 4480 mg/Kg): 0
Number of death (F:M) ([3]; mice, oral 4480 mg/Kg): 10 (5:5)
Ratio of death ([3]; mice, oral 4480 mg/Kg): 100%
LD50 ([3]; mice, oral administration, Bliss's method): 1728 mg/kg
LD50 as multiple of the clinic dose ([3]; taking 1000 mg/day for a 60 Kg human being): approximately 104 times

Salts of Sulfodehydroabietic Acid with Bismuth [NIPWB]
activity of pepsin ([1]; oral 50 mg/Kg): 0.74 ± 0.61 U
Inhibition ratio for pepsin activity ([1]; oral 50 mg/Kg): 50.0%
activity of pepsin ([1]; oral 100 mg/Kg): 0.36 ± 0.20 U
Inhibition ratio for pepsin activity ([1]; oral 100 mg/Kg): 75.7%
Total volume of gastric juice ([2]; oral 50 mg/Kg): 6.5 ± 2.5 mL
Inhibition ratio for total acid amount ([2]; oral 50 mg/Kg): 45.7%
Inhibition to gastric juice secretion ([2]; oral 50 mg/Kg): 28.6%
MEL (10^3) ([2]; oral 50 mg/Kg): 2.42 ± 1.79
MEAH ([2]; oral 50 mg/Kg): 15.9 ± 4.5
T.AC ([2]; oral 50 mg/Kg): 4.85 ± 3.58
Total volume of gastric juice ([2]; oral 100 mg/Kg): 7.6 ± 2.9 mL
Inhibition ratio for total acid amount ([2]; oral 100 mg/Kg): 44.4%
Inhibition to gastric juice secretion ([2]; oral 100 mg/Kg): 16.5%
MEL (10^3) ([2]; oral 100 mg/Kg): 2.16 ± 1.65
MEAH ([2]; oral 100 mg/Kg): 16.3 ± 4.7
T.AC ([2]; oral 100 mg/Kg): 4.32 ± 3.30

— patent publication US7015343B2, “Sulphonated dehydrogenated sylvate, the preparation and use” (Shanghai Xingkang Pharmaceuticals Research & Development …, priority 2001, dated 2006)
